Here are results for 44 compounds from patent publication US8754079B2, “Cycloalkyl containing thienopyrimidines for pharmaceutical compositions” (Boehringer Ingelheim International GmbH, priority 2010, dated 2014).

Counter-ions that a name gives are not always drawn.

T1 sequence (Q9HBH9 whole entry): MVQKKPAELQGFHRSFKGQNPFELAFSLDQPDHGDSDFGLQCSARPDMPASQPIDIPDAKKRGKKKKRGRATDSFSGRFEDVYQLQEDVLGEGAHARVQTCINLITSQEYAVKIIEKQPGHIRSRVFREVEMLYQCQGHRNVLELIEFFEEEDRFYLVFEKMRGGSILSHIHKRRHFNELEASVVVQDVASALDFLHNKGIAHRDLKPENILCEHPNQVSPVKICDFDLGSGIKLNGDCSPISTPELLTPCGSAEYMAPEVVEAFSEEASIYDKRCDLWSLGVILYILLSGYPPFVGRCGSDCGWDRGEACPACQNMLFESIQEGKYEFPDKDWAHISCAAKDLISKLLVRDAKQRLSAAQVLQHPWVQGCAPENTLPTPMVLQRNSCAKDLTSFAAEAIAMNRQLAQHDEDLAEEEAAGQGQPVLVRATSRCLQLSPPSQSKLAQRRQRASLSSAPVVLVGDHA

This experiment has as its target T1, MNK2 (Homo sapiens, UniProt Q9HBH9).
T1 construct: the open reading frames of human Mnk1 and Mnk2a were amplified from cDNA; made in house; host or cells: E. coli BL21
In words: Mnk2a in vitro kinase assay (indirect fluorescence polarization). The class given is biochemical. The settings on record: pre-activated GST-Mnk2a 2.5 nM, 20 μM ATP, 30 μM substrate peptide. The essentials:
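Human GST-Mnk2a was expressed in E. coli and activated in vitro with 150 nM pre-activated ERK2 and 50 μM ATP in HEPES pH 7.4/MgCl2 buffer (45 min, 30 °C). Activity on an eIF4E Ser209-derived 12mer peptide was read by competitive fluorescence polarization with a phospho-specific antibody.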
Background: In fluorescence polarisation assays a small probe gives low polarisation when free and higher when bound to something large.
By IC50 is commonly meant the concentration at which inhibition is half-maximal. Low values mean inhibition by little substance, high ones a need for much substance. `CO[C@H]1CC[C@H](Oc2cc(F)ccc2Nc2ncnc3sc(C(=O)N[C@H]4CC[C@H](O)CC4)c(C)c23)CC1` [Example 183] returned an IC50 of 23 nM.

On to `CO[C@H]1CC[C@H](Oc2cc(F)ccc2Nc2ncnc3sc(C(=O)NCC(C)O)c(C)c23)CC1` (some centres unmarked) [Example 184], for which the IC50 was 38 nM.

`CO[C@H]1CC[C@H](Oc2cc(F)ccc2Nc2ncnc3sc(C(=O)NCc4cnco4)c(C)c23)CC1` [Example 185] came in with an IC50 of 17 nM.

Turning to `CO[C@H]1CC[C@H](Oc2cc(F)ccc2Nc2ncnc3sc(C(=O)NCc4cn(C)cn4)c(C)c23)CC1` [Example 186], the IC50 amounted to 20 nM.

For the compound `CO[C@H]1CC[C@H](Oc2cc(F)ccc2Nc2ncnc3sc(C(=O)NCC#CCN(C)C)c(C)c23)CC1` [Example 187], half-maximal inhibition (IC50) was put at 21 nM. `CNC(=O)CNC(=O)c1sc2ncnc(Nc3ccc(F)cc3O[C@H]3CC[C@H](OC)CC3)c2c1C` [Example 188] displayed an IC50 of 20 nM. The figure for `CO[C@H]1CC[C@H](Oc2cc(F)ccc2Nc2ncnc3sc(C(=O)N[C@H]4C[C@@H]4N)c(C)c23)CC1` [Example 189] is 28 nM.

As for `CO[C@H]1CC[C@H](Oc2cc(F)ccc2Nc2ncnc3sc(C(=O)NCCN4CCCCC4)c(C)c23)CC1` [Example 190], it took 30 nM to reach half-maximal inhibition (IC50). `CO[C@H]1CC[C@H](Oc2cc(F)ccc2Nc2ncnc3sc(C(=O)NCCCN4CCOCC4)c(C)c23)CC1` [Example 192, 4-[4-Fluoro-2-(trans-4-methoxy-cyclohexyloxy)-phenylamino]-5-methyl-thieno[2,3-d]pyrimidine-6-carboxylic acid (3-morpholin-4-yl-propyl)-amide] gave an IC50 of 21 nM. For the compound `CO[C@H]1CC[C@H](Oc2cc(F)ccc2Nc2ncnc3sc(C(=O)NCCN(C)C)c(C)c23)CC1` [Example 193], the IC50 came out at 43 nM. The figure for `CO[C@H]1CC[C@H](Oc2cc(F)ccc2Nc2ncnc3sc(C(=O)NCCCO)c(C)c23)CC1` [Example 195] is 19 nM; for `CO[C@H]1CC[C@H](Oc2cc(F)ccc2Nc2ncnc3sc(C(=O)NCCO)c(C)c23)CC1` [Example 196] it is 17 nM; for `CO[C@H]1CC[C@H](Oc2cc(F)ccc2Nc2ncnc3sc(C(=O)NCCCn4ccnc4)c(C)c23)CC1` [Example 197] it is 1 nM.

Consider `CO[C@H]1CC[C@H](Oc2cc(F)ccc2Nc2ncnc3sc(C(=O)NCC4CN(C)CCO4)c(C)c23)CC1` (some centres unmarked) [Example 199], for which the midpoint of inhibition, the IC50, lay at 15 nM. Compound `CO[C@H]1CC[C@H](Oc2cc(F)ccc2Nc2ncnc3sc(C(=O)NCC4CCCNC4)c(C)c23)CC1` (stereo partly drawn) [Example 200, 4-[4-Fluoro-2-(trans-4-methoxy-cyclohexyloxy)-phenylamino]-5-methyl-thieno[2,3-d]pyrimidine-6-carboxylic acid (piperidin-3-ylmethyl)-amide] displayed an IC50 of 17 nM. Under `CO[C@H]1CC[C@H](Oc2cc(F)ccc2Nc2ncnc3sc(C(=O)NCCCN4CCC(O)C4)c(C)c23)CC1` (stereo partly drawn) [Example 201, 4-[4-Fluoro-2-(trans-4-methoxy-cyclohexyloxy)-phenylamino]-5-methyl-thieno[2,3-d]pyrimidine-6-carboxylic acid [3-(3-hydroxy-pyrrolidin-1-yl)-propyl]-amide] stands 16 nM. Take `CO[C@H]1CC[C@@H](Oc2cc(F)ccc2Nc2ncnc3sc(C(=O)NCCCN(C)C)c(C)c23)CC1` [Example 202, 4-[4-Fluoro-2-(cis-4-methoxy-cyclohexyloxy)-phenylamino]-5-methyl-thieno[2,3-d]pyrimidine-6-carboxylic acid (3-dimethylamino-propyl)-amide]: it took 46 nM to reach half-maximal inhibition (IC50). Under `COCCNC(=O)c1sc2ncnc(Nc3ccc(F)cc3O[C@H]3CC[C@@H](OC)CC3)c2c1C` [Example 203] stands 62 nM; under `Cc1c(C(N)=O)sc2ncnc(Nc3cccnc3O[C@H]3CC[C@H](O)CC3)c12` [Example 204, 4-[2-(trans-4-Hydroxy-cyclohexyloxy)-pyridin-3-ylamino]-5-methyl-thieno[2,3-d]pyrimidine-6-carboxylic acid amide], 5 nM; under `Cc1c(C(N)=O)sc2ncnc(Nc3cccnc3O[C@H]3CC[C@@H](O)CC3)c12` [Example 205, 4-[2-(cis-4-Hydroxy-cyclohexyloxy)-pyridin-3-ylamino]-5-methyl-thieno[2,3-d]pyrimidine-6-carboxylic acid amide], 10 nM. On to `Cc1c(C(=O)NCCCN(C)C)sc2ncnc(Nc3cccnc3O[C@H]3CC[C@H](O)CC3)c12` [Example 206, 4-[2-(trans-4-Hydroxy-cyclohexyloxy)-pyridin-3-ylamino]-5-methyl-thieno[2,3-d]pyrimidine-6-carboxylic acid (3-dimethylamino-propyl)-amide], for which the IC50 was 13 nM. Under `CO[C@H]1CC[C@H](Oc2ncccc2Nc2ncnc3sc(C(N)=O)c(C)c23)CC1` [Example 207, 4-[2-(trans-4-Methoxy-cyclohexyloxy)-pyridin-3-ylamino]-5-methyl-thieno[2,3-d]pyrimidine-6-carboxylic acid amide] stands 9 nM. In turn, `CNC(=O)c1sc2ncnc(Nc3cccnc3O[C@H]3CC[C@H](OC)CC3)c2c1C` [Example 208] displayed an IC50 of 14 nM. Compound `Cc1c(C(N)=O)sc2ncnc(Nc3ccc(F)cc3O[C@@H]3C[C@@H](O)[C@@H](O)C3)c12` [Example 212] gave an IC50 of 8 nM.

Turning to `Cc1c(C(N)=O)sc2ncnc(Nc3ccc(F)cc3O[C@H]3C[C@@H]4OC(C)(C)O[C@@H]4C3)c12` [Example 213], the midpoint of inhibition, the IC50, lay at 74 nM. Under `Cc1c(C(N)=O)sc2ncnc(Nc3ccc(F)cc3O[C@H]3C[C@@H]4OCO[C@@H]4C3)c12` [Example 214] stands 9 nM; under `CO[C@H]1C[C@@H](Oc2cc(F)ccc2Nc2ncnc3sc(C(N)=O)c(C)c23)C[C@H]1OC` [Example 216], 53 nM; under `Cc1c(C(N)=O)sc2ncnc(Nc3ccc(F)cc3O[C@@H]3C[C@@H]4OCO[C@@H]4C3)c12` [Example 218], 38 nM. `Cc1c(C(N)=O)sc2ncnc(Nc3ccc(F)cc3O[C@@H]3C[C@@H]4OC(C)(C)O[C@@H]4C3)c12` [Example 220] registered an IC50 of 390 nM. Under `Cc1c(C(N)=O)sc2ncnc(Nc3ccc(F)cc3OC3CCC(O)C3)c12` (centres unmarked) [Example 225, 4-(4-fluoro-2-(3-hydroxycyclopentyloxy)phenylamino)-5-methylthieno[2,3-d]pyrimidine-6-carboxamide] stands 6 nM; under `Cc1c(C(=O)NCCCN(C)C)sc2ncnc(Nc3ccc(F)cc3OC3CCC(O)C3)c12` (centres unmarked) [Example 226, N-(3-(dimethylamino)propyl)-4-(4-fluoro-2-(3-hydroxycyclopentyloxy)phenylamino)-5-methylthieno[2,3-d]pyrimidine-6-carboxamide], 10 nM; under `Cc1c(C(=O)NCCO)sc2ncnc(Nc3ccc(F)cc3OC3CCC(O)C3)c12` (centres unmarked) [Example 227, 4-(4-Fluoro-2-(3-hydroxycyclopentyloxy)phenylamino)-N-(2-hydroxyethyl)-5-methylthieno[2,3-d]pyrimidine-6-carboxamide], 12 nM. The figure for `Cc1c(C(N)=O)sc2ncnc(Nc3ccc(F)cc3O[C@H]3CC[C@H](NC(=O)OC(C)(C)C)C3)c12` [Example 228, {(1S,3S)-3-[2-(6-Carbamoyl-5-methyl-thieno[2,3-d]pyrimidin-4-ylamino)-5-fluoro-phenoxy]-cyclopentyl}-carbamic acid tert-butyl ester] is 1140 nM; for `Cc1c(C(N)=O)sc2ncnc(Nc3ccc(F)cc3O[C@H]3CC[C@H](N)C3)c12` [Example 229, 4-[2-((1S,3S)-3-Amino-cyclopentyloxy)-4-fluoro-phenylamino]-5-methyl-thieno[2,3-d]pyrimidine-6-carboxylic acid amide trifluoroacetate] it is 7 nM. Take `CC(=O)N[C@H]1CC[C@H](Oc2cc(F)ccc2Nc2ncnc3sc(C(N)=O)c(C)c23)C1` [Example 230, 4-[2-((1S,3S)-3-Acetylamino-cyclopentyloxy)-4-fluoro-phenylamino]-5-methyl-thieno[2,3-d]pyrimidine-6-carboxylic acid amide]: half-maximal inhibition (IC50) was put at 4 nM. `CC(=O)N[C@H]1CC[C@H](Oc2cc(F)ccc2Nc2ncnc3sc(C(=O)NCCO)c(C)c23)C1` [Example 231, 4-[2-((1S,3S)-3-Acetylamino-cyclopentyloxy)-4-fluoro-phenylamino]-5-methyl-thieno[2,3-d]pyrimidine-6-carboxylic acid (2-hydroxy-ethyl)-amide] came in with an IC50 of 14 nM. The figure for `CC(=O)N[C@H]1CC[C@H](Oc2cc(F)ccc2Nc2ncnc3sc(C(=O)N[C@@H]4C[C@H]4NC(=O)OC(C)(C)C)c(C)c23)C1` [Example 232] is 6 nM; for `CC(=O)N[C@H]1CC[C@H](Oc2cc(F)ccc2Nc2ncnc3sc(C(=O)NCC#CCN(C)C)c(C)c23)C1` [Example 233] it is 19 nM; for `CC(=O)N[C@H]1CC[C@H](Oc2cc(F)ccc2Nc2ncnc3sc(C(=O)NC4CCN(C)CC4)c(C)c23)C1` [Example 234] it is 32 nM. Turning to `CNC(=O)c1sc2ncnc(Nc3ccc(F)cc3O[C@H]3CC[C@H](NC(C)=O)C3)c2c1C` [Example 235], the concentration for half-maximal inhibition (IC50) was determined as 6 nM. The figure for `CONC(=O)c1sc2ncnc(Nc3ccc(F)cc3O[C@H]3CC[C@H](NC(C)=O)C3)c2c1C` [Example 236] is 16 nM; for `CC(=O)N[C@H]1CC[C@H](Oc2cc(F)ccc2Nc2ncnc3sc(C(=O)NCCCN(C)C)c(C)c23)C1` [Example 237] it is 25 nM. The figure for `CC(=O)N[C@H]1CC[C@H](Oc2cc(F)ccc2Nc2ncnc3sc(C(=O)N[C@@H]4C[C@H]4N)c(C)c23)C1` [Example 238] is 31 nM. The figure for `CC(=O)N[C@H]1CC[C@H](Oc2cc(F)ccc2Nc2ncnc3sc(C(=O)NCCCN4CCCC4)c(C)c23)C1` [Example 239] is 15 nM.
